Source: patent publication US12103919B2, “3-(5-oxy)-1-oxoisoindolin-2-yl)piperidine-2,6-dione derivatives and uses thereof” (NOVARTIS AG, priority 2021, dated 2024)

Target: T1, SALL4 (Homo sapiens, UniProt Q96SW2+Q9UJQ4)
T1 construct: expressed in transfected cells; host or cells: GripTite 293 MSR cells (293GT), ThermoFisher Scientific, stably transfected by electroporation, blasticidin-selected clones
Assay: Quantification of SALL4 protein levels in HiBiT tag fusion protein assay
Assay type: cell-based
Experimental: The HiBiT system from Promega was used to develop high-throughput and quantitative assays to measure changes in SALL4 protein levels in response to compounds. The HiBiT tag was derived from a split Nanoluciferase and has the following protein sequence: […] (SEQ ID No: 1). The complementary fragment of Nanoluciferase (known as LgBiT, from Promega), was added to the HiBiT tag to form an active Nanoluciferase enzyme whose activity can be precisely measured. In this way, the levels of a fusion protein with the HiBiT tag can be quantified in cell lysates.
DNA constructs, based on the Invitrogen pLenti6.2/V5 DEST backbone, were constructed with the HiBiT tag upstream of SALL4 and expressed the fusion protein from a CMV promotor.
To ensure moderate and consistent expression of the HiBiT-SALL4 fusion protein across all cells in the population, stable cell lines were derived from clones. GripTite 293 MSR cells (293GT) from ThermoFisher Scientific (Catalog number: CRL-R79507), were stably transfected with prepared constructs via electroporation. Following recovery, cells were selected by 10 ug/mL blasticidin in culture media.
The levels of HiBiT-SALL4 tagged fusion proteins in compound-treated cell lines were measured as follows:
On day 1, cells were diluted to 1.0×10^6 cells/ml in normal growth medium. 20 μL of cell suspension were plated in each well of a solid white 384-well plate. Plates were incubated overnight in a 37° C. and 5% CO2 humidified tissue culture incubator.
On day 2, serial dilutions of compounds were made in 384-well plates. Compound plates were set up with DMSO in columns 1, 2, 23, 24, and 10-point compound dilution series in column 3-12 and column 13-22. 10 mM stock solution of compound were placed into column 3 or 13 and a 1:5 serial dilution was carried out until there was a 10-point dilution series per compound. 100 nL of diluted compounds were transferred into the plated cells by Echo® (Labcyte) acoustic transfer. The highest concentration of compound was 50 μM. Plates were incubated overnight (18 hours) in a 37° C. and 5% CO2 humidified tissue culture incubator.
On day 3, plates were removed from the incubator and allowed to equilibrate at room temperature for 60 minutes. HiBiT substrate (Nano-Glo® HiBit Lytic Detection System, Promega Catalogue number: N3050) was added as described by the manufacturers protocols. Plates were incubated at room temperature for 30 minutes and luminescence was read using an EnVision® reader (PerkinElmer®). Data was analyzed and visualized using the Spotfire® software package.
SALL4 Amax reflects the DMSO-normalized, curve-fitted percentage of SALL4-HiBiT remaining at 50 uM. It was calculated by normalizing DMSO controls to 100%, parametric curve fitting of the dose response data (10-point, 5-fold), followed by calculation of response at 50 uM using the fitted equation.
This assay produced a range of SALL4 AC50 and Amax values over several repeat runs due to normal variations in the assay. For a comparison to the compounds described in PCT/IB2020/062070, the arithmatic mean values are reported over the number of repeats specified. […] The compounds of the present disclosure are therefore expected to have improved toxicological properties (Matyskiela, M. E., Couto, S., Zheng, X. et al. SALL4 mediates teratogenicity as a thalidomide-dependent cereblon substrate. Nat Chem Biol 14, 981-987 (2018); Donovan, K. A. et al. Thalidomide promotes degradation of SALL4, a transcription factor Implicated in Duane Radial Ray syndrome. eLife 2018; 7:e38430).

T1 sequence (Q9UJQ4 whole entry): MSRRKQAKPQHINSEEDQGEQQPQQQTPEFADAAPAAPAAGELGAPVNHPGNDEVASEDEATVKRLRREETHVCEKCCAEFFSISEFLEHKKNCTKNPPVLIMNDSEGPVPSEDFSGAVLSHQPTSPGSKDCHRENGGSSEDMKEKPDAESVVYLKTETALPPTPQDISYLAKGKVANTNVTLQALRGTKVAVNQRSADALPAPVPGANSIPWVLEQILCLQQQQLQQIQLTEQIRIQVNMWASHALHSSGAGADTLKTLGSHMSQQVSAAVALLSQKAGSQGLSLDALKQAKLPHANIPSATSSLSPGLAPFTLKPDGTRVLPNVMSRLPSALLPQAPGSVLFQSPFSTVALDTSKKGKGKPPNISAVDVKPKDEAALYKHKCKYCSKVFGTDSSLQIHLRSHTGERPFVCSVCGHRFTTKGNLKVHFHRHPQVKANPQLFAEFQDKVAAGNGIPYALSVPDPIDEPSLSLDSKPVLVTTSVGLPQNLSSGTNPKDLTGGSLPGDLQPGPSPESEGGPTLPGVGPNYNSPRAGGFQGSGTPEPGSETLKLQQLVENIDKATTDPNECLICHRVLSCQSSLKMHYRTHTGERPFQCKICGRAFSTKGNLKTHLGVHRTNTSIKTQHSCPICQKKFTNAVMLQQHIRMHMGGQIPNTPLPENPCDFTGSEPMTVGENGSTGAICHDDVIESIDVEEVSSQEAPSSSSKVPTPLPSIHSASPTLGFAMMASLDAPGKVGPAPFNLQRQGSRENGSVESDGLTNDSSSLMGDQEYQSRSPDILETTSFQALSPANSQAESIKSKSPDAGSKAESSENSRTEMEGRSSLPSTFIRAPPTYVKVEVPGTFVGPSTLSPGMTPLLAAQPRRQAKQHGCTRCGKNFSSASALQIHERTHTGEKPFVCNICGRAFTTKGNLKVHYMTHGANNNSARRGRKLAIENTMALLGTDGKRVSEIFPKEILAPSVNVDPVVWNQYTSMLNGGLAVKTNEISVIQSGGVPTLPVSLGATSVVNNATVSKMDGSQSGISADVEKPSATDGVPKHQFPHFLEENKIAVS
T1 sequence (Q96SW2 whole entry): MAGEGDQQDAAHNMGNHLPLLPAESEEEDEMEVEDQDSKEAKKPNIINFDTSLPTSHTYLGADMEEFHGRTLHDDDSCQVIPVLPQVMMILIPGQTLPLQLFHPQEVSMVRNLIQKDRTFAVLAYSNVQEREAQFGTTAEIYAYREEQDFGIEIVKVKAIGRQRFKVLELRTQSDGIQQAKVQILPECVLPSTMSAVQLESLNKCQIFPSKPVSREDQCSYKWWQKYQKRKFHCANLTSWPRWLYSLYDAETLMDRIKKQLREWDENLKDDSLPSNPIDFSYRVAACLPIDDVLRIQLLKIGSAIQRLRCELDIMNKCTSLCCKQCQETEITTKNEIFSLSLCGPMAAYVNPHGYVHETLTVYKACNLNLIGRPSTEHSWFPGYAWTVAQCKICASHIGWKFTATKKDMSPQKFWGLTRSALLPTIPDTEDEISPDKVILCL
T1 sequence (Q16531 whole entry partner): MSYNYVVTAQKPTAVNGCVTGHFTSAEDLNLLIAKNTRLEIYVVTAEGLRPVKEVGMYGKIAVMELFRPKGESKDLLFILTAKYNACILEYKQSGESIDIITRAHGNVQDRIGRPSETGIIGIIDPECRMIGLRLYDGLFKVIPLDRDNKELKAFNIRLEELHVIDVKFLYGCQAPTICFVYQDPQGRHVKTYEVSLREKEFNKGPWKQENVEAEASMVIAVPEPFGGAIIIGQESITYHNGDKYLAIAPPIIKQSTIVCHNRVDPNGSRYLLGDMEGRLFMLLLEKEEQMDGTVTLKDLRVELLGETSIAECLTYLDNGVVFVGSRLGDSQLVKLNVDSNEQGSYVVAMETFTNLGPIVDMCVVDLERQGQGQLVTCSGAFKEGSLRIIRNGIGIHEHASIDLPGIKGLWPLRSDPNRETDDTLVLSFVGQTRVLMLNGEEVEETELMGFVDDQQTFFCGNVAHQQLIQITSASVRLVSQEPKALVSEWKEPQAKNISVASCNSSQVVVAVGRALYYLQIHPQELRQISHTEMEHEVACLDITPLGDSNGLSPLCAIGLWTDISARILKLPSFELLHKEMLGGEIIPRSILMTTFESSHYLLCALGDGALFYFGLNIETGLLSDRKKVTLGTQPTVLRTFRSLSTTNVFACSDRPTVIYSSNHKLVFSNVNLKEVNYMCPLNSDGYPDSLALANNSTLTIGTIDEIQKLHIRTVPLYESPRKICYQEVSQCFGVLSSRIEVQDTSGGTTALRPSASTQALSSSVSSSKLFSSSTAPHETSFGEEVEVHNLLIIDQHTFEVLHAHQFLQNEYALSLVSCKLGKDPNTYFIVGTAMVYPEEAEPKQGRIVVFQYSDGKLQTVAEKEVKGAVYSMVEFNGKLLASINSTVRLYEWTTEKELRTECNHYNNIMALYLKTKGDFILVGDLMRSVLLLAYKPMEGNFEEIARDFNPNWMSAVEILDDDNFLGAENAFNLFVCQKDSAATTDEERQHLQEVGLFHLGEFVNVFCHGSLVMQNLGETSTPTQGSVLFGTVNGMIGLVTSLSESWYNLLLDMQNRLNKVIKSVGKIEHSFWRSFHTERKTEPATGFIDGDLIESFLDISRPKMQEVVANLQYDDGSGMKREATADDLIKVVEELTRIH

`CCN1CCC[C@@H](Oc2ccc3c(c2)CN(C2CCC(=O)NC2=O)C3=O)C1` (mixture of isomers) [Example 1, 3-(5-(((R)-1-ethylpiperidin-3-yl)oxy)-1-oxoisoindolin-2-yl)piperidine-2,6-dione] was tested, and the “SALL4 Amax” value (DMSO-normalized, curve-fitted percentage of SALL4-HiBiT remaining at 50 uM, mean over repeats) was 72.21% and the DC50 (arithmatic mean over number of repeats, 18 hours, top 50 μM, read-out: SALL4 AC50) was 0.049 µM.
